The values below come from ChEMBL document CHEMBL4184139, “Adamantyl- and other polycyclic cage-based conjugates of desferrioxamine B (DFOB) for treating iron-mediated toxicity in cell models of Parkinson's disease” (Bioorg Med Chem Lett, 2017).

The structures appear in SMILES notation. Calls of active or inactive are those of the source. The calls are words filed in the database; no cut-off is given here.

In the first data set the test system is SK-N-BE(2)-M17. Briefly: Cytoprotection against PQ-induced cell death in human SK-N-BE(2)-M17 cells assessed as increase in cell viability up to 1 mM treated 2 hrs post 2 mM PQ treatment by MTT assay. Type of data set: functional, cell-based.
Settings: not given
On to `CC(=O)N(O)CCCCCNC(=O)CCC(=O)N(O)CCCCCNC(=O)CCC(=O)N(O)CCCCCN` [DEFEROXAMINE], for which the result was inactive.

For the next data set, the system named is Astrocyte. Briefly: Cytoprotection against H2O2-induced cell death in BSO pretreated C57BL6/J mouse brain primary astrocytes assessed as increase in cell viability at 10 uM pretreated for 2 hrs followed by H2O2 addition measured after 24 hrs by MTT assay.
Settings: not given
The data set is classed as functional, cell-based. (In general: Tetrazolium assays rely on reduction of a dye to a coloured formazan, in cell work by metabolically active cells.)
`CC(=O)N(O)CCCCCNC(=O)CCC(=O)N(O)CCCCCNC(=O)CCC(=O)N(O)CCCCCNC(=O)C12CC3CC(C)(CC(C)(C3)C1)C2`: the result was Active.

For a further data set, the system named is SK-N-BE(2)-M17. Nature of the data set: Cytoprotection against H2O2-induced cell death in human SK-N-BE(2)-M17 cells assessed as increase in cell viability at 1 mM pretreated for 2 hrs followed by 1 mM H2O2 addition measured after 24 hrs by MTT assay.
Settings: not given
Type of data set: functional, cell-based.
For the molecule `CC(=O)N(O)CCCCCNC(=O)CCC(=O)N(O)CCCCCNC(=O)CCC(=O)N(O)CCCCCN` [DEFEROXAMINE], the result was Active.

Another data set relates to SK-N-BE(2)-M17. Nature of the data set: Cytotoxicity against human SK-N-BE(2)-M17 cells at 100 uM 24 hrs by LDH release assay. The data set is classed as cell-based. The note with it: sk-n-be(2)-m17, 24 h. (Release of lactate dehydrogenase indicates damage to the cell membrane.)
Take `CC(=O)N(O)CCCCCNC(=O)CCC(=O)N(O)CCCCCNC(=O)CCC(=O)N(O)CCCCCNC(=O)C12CC3CC(C)(CC(C)(C3)C1)C2`: the Activity result is given as “Non-Toxic”.

Another data set concerns SK-N-BE(2)-M17. Nature of the data set: Cytoprotection against PQ-induced cell death in human SK-N-BE(2)-M17 cells assessed as increase in cell viability at 100 uM pretreated for 2 hrs followed by 1 mM PQ addition measured after 24 hrs by MTT assay. The data set is classed as functional, cell-based.
Settings: not given
For the molecule `CC(=O)N(O)CCCCCNC(=O)CCC(=O)N(O)CCCCCNC(=O)CCC(=O)N(O)CCCCCNC(=O)C12CC3CC(C)(CC(C)(C3)C1)C2`, the outcome was Active.

The subject of the next data set is SK-N-BE(2)-M17. Briefly: Cytoprotection against PQ-induced cell death in human SK-N-BE(2)-M17 cells assessed as increase in cell viability at 100 uM pretreated for 2 hrs followed by 1 mM PQ addition measured after 24 hrs by LDH assay. Type of data set: functional, cell-based.
Settings: not given
`CC(=O)N(O)CCCCCNC(=O)CCC(=O)N(O)CCCCCNC(=O)CCC(=O)N(O)CCCCCNC(=O)C12CC3CC(C)(CC(C)(C3)C1)C2`: the outcome was Active.

A further data set deals with SK-N-BE(2)-M17. Briefly: Cytoprotection against PQ-induced cell death in human SK-N-BE(2)-M17 cells assessed as increase in cell viability at 100 uM treated post 200 uM Fecl3 and 1 mM PQ treatment measured after 24 hrs by MTT assay. Type of data set: functional, cell-based.
Settings: not given
Regarding `CC(=O)N(O)CCCCCNC(=O)CCC(=O)N(O)CCCCCNC(=O)CCC(=O)N(O)CCCCCNC(=O)C12CC3CC(C)(CC(C)(C3)C1)C2`, the result was Active.

Another data set deals with Astrocyte. Briefly: Cytoprotection against H2O2-induced cell death in BSO pretreated C57BL6/J mouse brain primary astrocytes assessed as increase in cell viability at 10 uM pretreated for 2 hrs followed by H2O2 addition measured after 24 hrs by LDH release assay. Type of data set: functional, cell-based.
Settings: not given
For `CC(=O)N(O)CCCCCNC(=O)CCC(=O)N(O)CCCCCNC(=O)CCC(=O)N(O)CCCCCNC(=O)C12CC3CC(C)(CC(C)(C3)C1)C2`, the outcome was Active.

Test system in another data set: not listed separately
Nature of the data set: Binding affinity to Fe3+ assessed as change in retention time for compound-Fe3+ complex by RP-HPLC analysis relative to free ligand.
Settings: not given
In the case of `CC(=O)N(O)CCCCCNC(=O)CCC(=O)N(O)CCCCCNC(=O)CCC(=O)N(O)CCCCCNC(=O)C12CC3CC(C)(CC(C)(C3)C1)C2`, the Retention time came out at 1.06 min.
`CC(=O)N(O)CCCCCNC(=O)CCC(=O)N(O)CCCCCNC(=O)CCC(=O)N(O)CCCCCN` [DEFEROXAMINE]: the Retention time was -0.52 min.

Test system in a further data set: not listed separately
Nature of the data set: Octanol-water partition coefficient, log P of the compound at 1 mg by RP-HPLC analysis. Type of data set: physicochemical.
Settings: not given
What is called logP is the decadic logarithm of the partition coefficient of the neutral form, usually between octanol and water. Regarding `CC(=O)N(O)CCCCCNC(=O)CCC(=O)N(O)CCCCCNC(=O)CCC(=O)N(O)CCCCCNC(=O)C12CC3CC(C)(CC(C)(C3)C1)C2`, the logP turned out to be 2.07.
Still for that read-out and setting: then `CC(=O)N(O)CCCCCNC(=O)CCC(=O)N(O)CCCCCNC(=O)CCC(=O)N(O)CCCCCN` [DEFEROXAMINE], with -2.29.

Test system in a further data set: not listed separately
Nature of the data set: Binding affinity to Fe3+.
Settings: not given
For the molecule `CC(=O)N(O)CCCCCNC(=O)CCC(=O)N(O)CCCCCNC(=O)CCC(=O)N(O)CCCCCN` [DEFEROXAMINE], the log K amounted to 30.

Another data set deals with SK-N-BE(2)-M17. Briefly: Cytotoxicity against human SK-N-BE(2)-M17 cells at 100 uM 24 hrs by MTT assay. The data set is classed as cell-based. To be noted: sk-n-be(2)-m17, 24 h.
With `CC(=O)N(O)CCCCCNC(=O)CCC(=O)N(O)CCCCCNC(=O)CCC(=O)N(O)CCCCCNC(=O)C12CC3CC(C)(CC(C)(C3)C1)C2`, the Activity entry is listed as “Non-Toxic”.

The subject of a further data set is SK-N-BE(2)-M17. Nature of the data set: Cytoprotection against PQ-induced cell death in human SK-N-BE(2)-M17 cells assessed as increase in cell viability at 1 mM pretreated for 2 hrs followed by 1 mM PQ addition measured after 24 hrs by MTT assay. Type of data set: functional, cell-based.
Settings: not given
For `CC(=O)N(O)CCCCCNC(=O)CCC(=O)N(O)CCCCCNC(=O)CCC(=O)N(O)CCCCCN` [DEFEROXAMINE], the outcome was Active.

In another data set the test system is SK-N-BE(2)-M17. Nature of the data set: Cytoprotection against H2O2-induced cell death in human SK-N-BE(2)-M17 cells assessed as increase in cell viability at 100 uM treated 2 hrs post 0.8 mM H2O2 treatment measured after 24 hrs by MTT assay. The data set is classed as functional, cell-based.
Settings: not given
Consider `CC(=O)N(O)CCCCCNC(=O)CCC(=O)N(O)CCCCCNC(=O)CCC(=O)N(O)CCCCCNC(=O)C12CC3CC(C)(CC(C)(C3)C1)C2`, for which the outcome was Active.

A further data set deals with SK-N-BE(2)-M17. Nature of the data set: Cytoprotection against PQ-induced cell death in human SK-N-BE(2)-M17 cells assessed as increase in cell viability at 100 uM treated post 200 uM Fecl3 and 1 mM PQ treatment measured after 24 hrs by LDH assay. Type of data set: functional, cell-based.
Settings: not given
Turning to `CC(=O)N(O)CCCCCNC(=O)CCC(=O)N(O)CCCCCNC(=O)CCC(=O)N(O)CCCCCNC(=O)C12CC3CC(C)(CC(C)(C3)C1)C2`, the outcome was Active.

Test system in another data set: not listed separately
Nature of the data set: Binding affinity to Fe2+.
Settings: not given
`CC(=O)N(O)CCCCCNC(=O)CCC(=O)N(O)CCCCCNC(=O)CCC(=O)N(O)CCCCCN` [DEFEROXAMINE] came in with a log K of 8.

Test system in a further data set: not listed separately
Nature of the data set: Binding affinity to Fe3+ assessed as [M+H]+ adduct formation by LC-MS/MS analysis.
Settings: not given
On to `CC(=O)N(O)CCCCCNC(=O)CCC(=O)N(O)CCCCCNC(=O)CCC(=O)N(O)CCCCCNC(=O)C12CC3CC(C)(CC(C)(C3)C1)C2`, for which the result was Active.

The test system of a further data set is SK-N-BE(2)-M17. Briefly: Cytoprotection against PQ-induced cell death in human SK-N-BE(2)-M17 cells assessed as increase in cell viability treated 2 hrs post 2 mM PQ treatment measured after 24 hrs by MTT assay. Type of data set: functional, cell-based.
Settings: not given
Broadly, the EC50 is the concentration that produces a half-maximal response. On to `CC(=O)N(O)CCCCCNC(=O)CCC(=O)N(O)CCCCCNC(=O)CCC(=O)N(O)CCCCCNC(=O)C12CC3CC(C)(CC(C)(C3)C1)C2`, for which the EC50 amounted to 9.8 µM.

The subject of another data set is SK-N-BE(2)-M17. Nature of the data set: Cytoprotection against PQ-induced cell death in human SK-N-BE(2)-M17 cells assessed as increase in cell viability at 1 mM pretreated for 2 hrs followed by 1 mM PQ addition measured after 24 hrs by LDH assay. Type of data set: functional, cell-based.
Settings: not given
Take `CC(=O)N(O)CCCCCNC(=O)CCC(=O)N(O)CCCCCNC(=O)CCC(=O)N(O)CCCCCN` [DEFEROXAMINE]: the outcome was Active.

The subject of a further data set is SK-N-BE(2)-M17. Nature of the data set: Cytoprotection against H2O2-induced cell death in human SK-N-BE(2)-M17 cells assessed as increase in cell viability at 100 uM pretreated for 2 hrs followed by 1 mM H2O2 addition measured after 24 hrs by MTT assay. Type of data set: functional, cell-based.
Settings: not given
As to `CC(=O)N(O)CCCCCNC(=O)CCC(=O)N(O)CCCCCNC(=O)CCC(=O)N(O)CCCCCNC(=O)C12CC3CC(C)(CC(C)(C3)C1)C2`, the result was Active.

The next data set has as its system SK-N-BE(2)-M17. Briefly: Cytoprotection against PQ-induced cell death in human SK-N-BE(2)-M17 cells assessed as increase in cell viability at 100 uM treated 2 hrs post 2 mM PQ treatment measured after 24 hrs by MTT assay.
Settings: not given
The data set is classed as functional, cell-based.
For `CC(=O)N(O)CCCCCNC(=O)CCC(=O)N(O)CCCCCNC(=O)CCC(=O)N(O)CCCCCNC(=O)C12CC3CC(C)(CC(C)(C3)C1)C2`, the outcome was Active.

Test system in a further data set: not listed separately
Briefly: Binding affinity to Fe3+ assessed as [M+2H]+ adduct formation by LC-MS/MS analysis.
Settings: not given
With `CC(=O)N(O)CCCCCNC(=O)CCC(=O)N(O)CCCCCNC(=O)CCC(=O)N(O)CCCCCNC(=O)C12CC3CC(C)(CC(C)(C3)C1)C2`, the result was Active.

Another data set deals with SK-N-BE(2)-M17. Nature of the data set: Cytoprotection against H2O2-induced cell death in human SK-N-BE(2)-M17 cells assessed as increase in cell viability at 100 uM pretreated for 2 hrs followed by 1 mM H2O2 addition measured after 24 hrs by LDH assay. The data set is classed as functional, cell-based.
Settings: not given
For `CC(=O)N(O)CCCCCNC(=O)CCC(=O)N(O)CCCCCNC(=O)CCC(=O)N(O)CCCCCNC(=O)C12CC3CC(C)(CC(C)(C3)C1)C2`, the result was Active.

The next data set relates to SK-N-BE(2)-M17. Briefly: Cytoprotection against H2O2-induced cell death in human SK-N-BE(2)-M17 cells assessed as increase in cell viability at 1 mM pretreated for 2 hrs followed by 1 mM H2O2 addition measured after 24 hrs by LDH assay.
Settings: not given
The data set is classed as functional, cell-based.
As for `CC(=O)N(O)CCCCCNC(=O)CCC(=O)N(O)CCCCCNC(=O)CCC(=O)N(O)CCCCCN` [DEFEROXAMINE], the result was Active.

Test system in another data set: not listed separately
Briefly: Binding affinity to Fe3+ in ferric ammonium citrate loaded C57BL6/J mouse brain primary astrocytes assessed as iron depletion at 100 uM treated 2 hrs post 125 uM FAC loading measured after 2 hrs by ICP-MS analysis. The data set is classed as cell-based.
Settings: not given
`CC(=O)N(O)CCCCCNC(=O)CCC(=O)N(O)CCCCCNC(=O)CCC(=O)N(O)CCCCCN` [DEFEROXAMINE]: the outcome was inactive.
